pIC50: −log10 of the molar value.
Key:
[1] = test system: MCF-7 human breast cancer cells; test: AlamarBlue cell viability assay; type: cell-based; conditions: for viability at 1 µM / viability at 10 µM / pIC50: Homo sapiens, MCF7, 72 h; for viability at 1 µM: MCF-7, 1 μM; for viability at 1 µM / viability at 10 µM: read-out: viable cells remaining; for viability at 10 µM: MCF-7, 10 μM; for pIC50: MCF-7, 72 h
Experimental: The antiproliferative potential of the synthesised 3-fluoro β-lactams 26–35 and 3,3-difluoro β-lactams 36–45 was evaluated in MCF-7 human breast cancer cells using the AlamarBlue assay, with CA-4 as reference compound (Figure 3). […] The results for the preliminary in vitro antiproliferative screen for 3-fluoro β-lactam compounds (26–29), which contain different substituents at the para position in the B ring, are presented in Figure 3A.
Cells were seeded at a density of 5 × 10^3 cells/well (MCF-7 and MDA-MB-231) and 1 × 10^4 cells/well (HEK-293T) in 96-well plates (200 μL per well). After 24 h, cells were then treated with medium alone, with vehicle (1% ethanol (v/v)) or with CA-4 or β-lactam compounds at 1 μM and 10 μM concentrations. […] Cell proliferation for MCF-7 cells was analysed with the AlamarBlue assay (Invitrogen Corp.) as previously described by us. After 72 h, AlamarBlue (10% (v/v)) was added to each well, and plates were incubated for 3–5 h at 37 °C in the dark. Fluorescence results were obtained with a 96-well fluorimeter with excitation at 530 nm and emission at 590 nm with results recorded as percentage viability relative to vehicle control (100%). Dose–response curves were obtained and IC50 values (concentration of drug resulting in 50% reduction in cell survival) were calculated using Prism (GraphPad Software, Inc., La Jolla, CA, USA).
Figure 3 Preliminary cell viability data for 3-fluoro and 3,3-difluoro β-lactam compounds. (A) 3-Fluoro β-lactam compounds containing different para-substituent ring B 26–29; 3-fluoro β-lactam compounds containing different meta-substituent ring B 30, 32–35; (B) 3-difluoro β-lactam compounds containing different para-substituent ring B 36–39; 3-difluoro β-lactam compounds containing different meta-substituent ring B 40, 42–45 in MCF-7 breast cancer cells. Cell proliferation of MCF-7 cells was determined with an AlamarBlue assay (seeding density […] for 96-well plates). Compound concentrations of either 10 μM or 1 μM for 72 h were used to treat the cells with control wells containing vehicle ethanol (1% v/v) and CA-4 (10 μM and 1 μM). The mean value for three experiments is shown with the ± S.E.M. for three independent experiments.

SW-480 cells = test: AlamarBlue cell viability assay; type: cell-based; conditions: SW-480, 10 μM, 72 h
Experimental: Compound # (Treatment Concentration µM) […]
different para-substituent ring B 26-29; 3-fluoro β-lactam compounds containing different meta-substituent ring B 30, 33-35; (B) 3,3-difluoro β-lactam compounds containing different para-substituent ring B 36-39; 3,3-difluoro β-lactam compounds containing different meta-substituent […]
ring B 40, 42-45 in SW-480 cancer cells.
Cell proliferation of MCF-7 cells was determined with an alamarBlue assay (seeding density […]
Compound concentrations of either 10 μM or 1 μM for 72 h were used to treat the cells with control wells containing vehicle ethanol (1%

[2] = Stability in phosphate buffers (HPLC); type: physicochemical
Experimental: (§1) The β-lactam ring is known to undergo hydrolysis/degradation depending on the substituent type on the ring. For example, degradation of monocyclic β-lactam antibiotic aztreonam increased with elevated humidity, temperature and acidic pH buffer. Ezetimibe, a monocyclic β-lactam drug used to reduce blood cholesterol, undergoes degradation and hydrolysis more rapidly in neutral and basic pH conditions than in acidic pH [71]. The stability of representative compounds 33 and 39 was also determined at pH 4, pH 7.4 (plasma) and pH 9 (intestine) by HPLC. […] The electron-withdrawing effect of the 3-fluoro substituent may result in decreasing stability of the β-lactam ring in response to acid hydrolysis.
(§2) The stability study for compounds 33 and 39 was performed using analytical HPLC (Symmetry column (C18, […], 4.6 × 150 mm), dual wavelength absorbance detector (Waters 2487), binary HPLC pump (Waters 1525) and autosampler (Waters 717 plus)) with mobile phase acetonitrile (70%)/water (30%), flow rate 1 mL/min over 15 min and detection at λ 254 nm. Stock solutions of compounds 33 and 39 (1 mg/mL in mobile phase) were used. Dilutions of 0.5 mg/mL, 0.25 mg/mL, 0.125 mg/mL, 0.0625 mg/mL, 0.03125 mg/mL, 0.015625 mg/mL and 0.0078 mg/mL were prepared for the calibration curve. (i) Stability of 33 and 39 in phosphate buffers: The phosphate buffers were prepared in accordance with the British Pharmacopoeia 2020 at pH values 4, 7.4 and 9. Stock solution, 300 µL (1 mg/mL ACN), was added to a vial containing buffer (9.7 mL), mixed and pre-heated to 37 °C. 1 mL of the solution was introduced into an HPLC vial. Samples (10 µL) were injected and analysed at time intervals of t = 0 min, 5 min, 30 min, 60 min and hourly for 24 h. The analysis was performed in triplicate. (ii) Thermal stability: Compounds 33 and 39 (1 mL stock solution) were each placed in a vial for 4 h at 60 °C on a heating block. The sample was then cooled, diluted with acetonitrile and analysed by HPLC. (iii) Photostability study: Compounds 33 and 39 (stock solution, 1 mL) were placed in a vial, exposed to UV light for 4 h and then analysed by HPLC. (iv) Stability in acidic conditions: HCl (0.1 M, 0.2 mL) was added to stock solutions (0.8 mL) of 33 and 39 in a vial. The vial was vortexed and retained at room temperature. A sample was neutralised with NaOH (0.1 M, 0.2 mL) each hour for 4 h and then analysed by HPLC. (v) Stability of 33 and 39 in basic (alkaline) conditions: NaOH (0.1 M, 0.2 mL) was added to stock solution (0.8 mL) in a vial. The vial was vortexed and retained at room temperature. A sample was neutralised with HCl (0.1 M, 0.2 mL) every hour for 4 h then analysed by HPLC. (vi) Stability of 33 and 39 in oxidising conditions: H2O2 (3%, 0.2 mL) was added to the stock solution (0.8 mL). The vial was vortexed to obtain a homogeneous mixture and retained at room temperature, and a sample was analysed by HPLC every hour for 4 h.

[3] = Stability under degradation conditions (HPLC); type: physicochemical
Experimental: as §1, §2

SMILES	cells remaining (SW-480 cells) [%]	viability at 1 µM ([1]; 72 h) [%]	viability at 10 µM ([1]; 72 h) [%]	pIC50 [1]	further results
CCSc1ccc(C2C(F)C(=O)N2c2cc(OC)c(OC)c(OC)c2)cc1 (centres unmarked) [Compound 29, 4-(4-(Ethylthio)phenyl)-3-fluoro-1-(3,4,5-trimethoxyphenyl)azetidin-2-one]	60	–	–	–	cell viability ([1]; MCF-7, range over the two concentrations 1 and 10 μM, 72 h): 68–90%
CCSc1ccc(C2N(c3cc(OC)c(OC)c(OC)c3)C(=O)C2(F)F)cc1 (centres unmarked) [Compound 39, 4-(4-(Ethylthio)phenyl)-3,3-difluoro-1-(3,4,5-trimethoxyphenyl)azetidin-2-one]	–	–	–	–	remaining at 24 h, 0.03 mg/mL ([2]; phosphate buffer pH 4, 37 °C): 39%; remaining at 24 h, 0.03 mg/mL ([2]; phosphate buffer pH 7.4, 37 °C): 50%; remaining at 24 h, 0.03 mg/mL ([2]; phosphate buffer pH 9, 37 °C): 19%; remaining at 0.03 mg/mL ([2]; phosphate buffer, pH 11 (as printed in Table S7)): 19%; remaining at 4 h, 0.8 mg/mL ([3]; 0.1 M HCl added to stock solution, acidic (0.1 M HCl)): 54%; remaining at 4 h, 0.8 mg/mL ([3]; 0.1 M NaOH added to stock solution, alkaline (0.1M NaOH)): 60%; remaining at 4 h, 0.8 mg/mL ([3]; 3% H2O2 added to stock solution, oxidative (3% H2O2)): 50%; remaining at 4 h, 1 mg/mL ([3]; stock solution in acetonitrile/water under UV light, UV light): 61%; remaining at 4 h, 1 mg/mL ([3]; stock solution in acetonitrile/water, heated, heat (60 °C)): 82%
CCOc1ccc(C2C(F)C(=O)N2c2cc(OC)c(OC)c(OC)c2)cc1 (centres unmarked) [Compound 27, 4-(4-Ethoxyphenyl)-3-fluoro-1-(3,4,5-trimethoxyphenyl)azetidin-2-one]	–	> 70	46	–	–
COc1ccc(C2C(F)C(=O)N2c2cc(OC)c(OC)c(OC)c2)cc1 (centres unmarked) [Compound 26, 3-Fluoro-4-(4-methoxyphenyl)-1-(3,4,5-trimethoxyphenyl)azetidin-2-one]	58	> 70	40	6.51	–
COc1cc(N2C(=O)C(F)C2c2ccc(SC)cc2)cc(OC)c1OC (centres unmarked) [Compound 28, 3-Fluoro-4-(4-(methylthio)phenyl)-1-(3,4,5-trimethoxyphenyl)azetidin-2-one]	–	> 70	47	–	–
COc1ccc(C2N(c3cc(OC)c(OC)c(OC)c3)C(=O)C2(F)F)cc1O (centres unmarked) [Compound 42, 3,3-Difluoro-4-(3-hydroxy-4-methoxyphenyl)-1-(3,4,5-trimethoxyphenyl)azetidin-2-one]	56	17	37	6.49	–
